US11696920B2, “Intelligent delivery of ingested and absorbed molecules” (IMMD SP. ZO.O, priority 2016, dated 2023)

Tests used:
[1] = Serum DHA pharmacokinetics after 4 weeks of supplementation with DHA formulations; settings: human, in vivo
[2] = Serum EPA pharmacokinetics after 4 weeks of supplementation with DHA formulations; settings: human, in vivo
[3] = test system: liver lipid metabolism; experiment: Serum triglycerides, DHA and carotenoid-SFA formulations, trial for 4 weeks; assay type: in vivo, human
[4] = test system: liver lipid metabolism; experiment: Serum LDL cholesterol, DHA and carotenoid-SFA formulations, trial for 4 weeks; assay type: in vivo, human
[5] = test system: blood markers of oxidative and inflammatory damage; experiment: IOD blood marker, DHA and carotenoid-SFA formulations, trial for 4 weeks; assay type: in vivo, human
Excerpt: (§1) Since DHA itself has antioxidant and anti-inflammatory properties it was important to assess whether its formulation with carotenoids and SFA would change them. Comparison of the effects of DHA and its new formulations on blood markers of oxidative and inflammatory damage is presented in Table 7.

[6] = test system: LDL; experiment: LDL-Px blood marker, DHA and carotenoid-SFA formulations, trial for 4 weeks; assay type: in vivo, human
Excerpt: as §1
It is worth pointing out that the real synergetic effect may be even more profound, because in both of those carotenoid-SFA formulations only half of the dose of the control DHA was used.

[7] = publicly available trans-resveratrol formulations; cited from earlier work

Row | Structure (SMILES) | Triglycerides ([3]; 0 w) [mg/dL] | Triglycerides ([3]; 4 w) [mg/dL] | Triglycerides, % of baseline ([3]; 4 w) [%] | Δ Triglycerides vs 0 w ([3]; 4 w) | LDL cholesterol ([4]; 0 w) [mg/dL] | LDL cholesterol ([4]; 4 w) [mg/dL] | Δ LDL cholesterol vs 0 w ([4]; 4 w) | IOD in MDA ([5]; 0 w) [µM] | IOD in MDA ([5]; 4 w) [µM] | IOD, % of baseline ([5]; 4 w) [%] | Δ IOD vs 0 w ([5]; 4 w) | LDL-Px ([6]; 0 w) [ELISA × 10^3] | LDL-Px ([6]; 4 w) [ELISA × 10^3] | LDL-Px, % of baseline ([6]; 4 w) [%] | Δ LDL-Px vs 0 w ([6]; 4 w) | also measured
1 | CC/C=C\C/C=C\C/C=C\C/C=C\C/C=C\C/C=C\CCC(=O)O [DHA 500 mg, docosahexaenoic acid] | 197 ± 18 | 184 ± 17 | 93 | Δ = −13 mg/dL | 154 ± 16 | 149 ± 15 | Δ = −5 mg/dL | 165 ± 18 | 107 ± 11 | 65 | Δ = −58 μM | 700 ± 76 | 265 ± 27 | 38 | Δ = −435 ELISA × 10^3 | concentration at 0 weeks [1]: 106 ± 11 µg/mL; concentration at 2 weeks [1]: 134 ± 12 µg/mL; concentration at 4 weeks [1]: 108 ± 12 µg/mL; Increase in serum DHA ([1]; 2 weeks): 26%; Δ serum DHA vs 0 w ([1]; 2 weeks): Δ = +28 μg/ml; Δ serum DHA vs 0 w ([1]; 4 weeks): Δ = +2 μg/ml; Combined increase in serum EPA [2]: 11.6 µg/mL; Serum EPA ([2]; 0 weeks): 56.5 ± 6.2 µg/mL; Increase in serum EPA ([2]; 2 weeks): 21%; Serum EPA ([2]; 2 weeks): 68.1 ± 7.4 µg/mL; Δ serum EPA vs 0 w ([2]; 2 weeks): Δ = +11.6 μg/ml; Serum EPA ([2]; 4 weeks): 35.8 ± 5.3 µg/mL; Reduction of serum triglycerides ([3]; 4 weeks): 13 mg/dL
2 | CC(C)=CCC/C(C)=C/C=C/C(C)=C/C=C/C(C)=C/C=C/C=C(C)/C=C/C=C(C)/C=C/C=C(\C)CCC=C(C)C [Lycopene 7 mg, Lycopene] | 155 ± 12 | 150 ± 13 | 97 | Δ = −5 mg/dL | 158 ± 17 | 154 ± 16 | Δ = −4 mg/dL | 111 ± 12 | 79 ± 9 | 71 | Δ = −32 μM | 133 ± 19 | 115 ± 14 | 86 | Δ = −18 ELISA × 10^3 | Change in triglyceride concentrations ([3]; end of the 4-week trial): no significant change; Effect on serum LDL level ([4]; 4 weeks): did not affect level of LDL
3 | Oc1ccc(/C=C/c2cc(O)cc(O)c2)cc1 [trans-resveratrol] |  |  |  |  |  |  |  |  |  |  |  |  |  |  |  | Fraction bioavailable after oral consumption [7]: 5%
